Assay results reported in patent US10233201B2, “Class of HDAC inhibitors expands the renal progenitor cells population and improves the rate of recovery from acute kidney injury” (University of Pittsburgh—Of the Commonwealth System of …, priority 2012, dated 2019).

Tests used:
[1] = test system: renal progenitor cells (lhx1a expression); assay: In situ hybridization for lhx1a expression in 10-somite embryos (renal progenitor cell expansion); assay type: in vivo; conditions: for lhx1a expansion class, 800 nM: 800 nM from 2 hpf; for lhx1a expansion class, 800 nM: key: effective (+); partially effective (+/−); ineffective (−); Analogs that killed all embryos at a given concentration before reaching 10 somites are listed as XX
Outline: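 Zebrafish embryos treated with compound, then colorimetric whole-mount in situ hybridization for lhx1a mRNA at 10-somite stage (hybridization 65 °C). Percent embryos with expanded kidney field counted manually; EC50 read as the 50% point of the plotted curve.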

[2] = test system: lhx1a, pax2a, pax8, ntla transcripts; assay: Relative qPCR in the trunk region of 10-somite embryos; assay type: in vivo, zebrafish; conditions: 3 μM
From the text: Conducted as described in WO 2012109527 and in priority U.S. provisional Patent Application No. 61/720,621.

renal progenitor cells = assay: Tg(lhx1a:EGFP) reporter: renal progenitor cell counting; assay type: in vivo, zebrafish
Method: Tg(lhx1a:EGFP)^pt303 embryos were treated with 3 μM PTBA and then fixed in 4% paraformaldehyde in PBS for 8 hours at 4° C. Embryos were washed in PBS containing 0.1% TWEEN 20 (PBT) and incubated in 1 μg/ml DAPI in PBT for 30 minutes at room temperature. Embryos were flat-mounted on glass slides with Cytoseal 60 and imaged with either a Leica M205 FA epifluorescent microscope or an Olympus FluoView 1000 confocal microscope. Confocal projections contained stacks of six 3 μm images. A predefined box was positioned at the most posterior region of the notochord and included the most lateral GFP-positive cell in a kidney field. The cells that were positive for both GFP and DAPI within this box were counted manually with the aid of ImageJ. Variances of the control and PTBA-treated groups were compared by F test and found to be unequal. Therefore, a two-tailed t test with unequal variance was used to determine significance (α=0.05).
For all second-generation compounds, the cad17:EGFP transgene is used as the primary readout to assay for expansion of kidney field (FIG. 35). PTBA analogues that expand cad17:EGFP expression are subjected to a secondary screen. […] Such compounds are assessed in target efficacy and toxicity assays.

pronephros = assay: Pronephric markers at 48 hpf (cdh17, NaK-ATPase, wt1a, slc4a4, slc12a1); assay type: in vivo, zebrafish; conditions: 3 μM
Method: (§1) PTBA was synthesized as described below. Hydroxyurea and aphidicolin were obtained from Sigma-Aldrich.
(§2) In situ hybridization and immunocytochemistry: In situ hybridization was performed as previously described with some modifications. 142 Hybridization temperature was 65° C. Embryos were blocked in 2% blocking reagent (Roche) with 5% sheep serum in MAB (100 mM maleic acid and 150 mM NaCl [pH 7.5]). Whole-mount immunocytochemistry with 1:25 mouse anti-α6F antibody (Developmental Studies Hybridoma Bank) and 1:100 Cy3 secondary antibody (Jackson ImmunoResearch) was performed as described previously. 108 Embryos were embedded in JB-4 for sectioning per the manufacturer's instructions (Polysciences), sectioned at 5 μm, and mounted with Cytoseal 60 (Richard-Allan Scientific).

[3] = test system: myod1 (somites), fli1a (vasculature), ntla (notochord); assay: In situ hybridization for mesodermal markers myod1, fli1a, ntla in 10-somite embryos; assay type: in vivo, zebrafish
Method: as §1, §2

[4] = test system: Acetylated Histone H3 K9 (Ac-H3 K9); assay: Renal histone H3 K9 acetylation after single injection in CD1 mice; assay type: in vivo, mouse
Method: PTBA analogues are soluble in 1% DMSO/water, are administered subcutaneously as a single injection in adult CD1 mice, and kidneys harvested at 12, 24 and 48 hours to evaluate histone acetylation (which should increase with HDACi). PTBA analogs are used at a dose range determined from comparative dose efficacy with m4PTB in the secondary zebrafish screen. Acetylated Histone H3 K9 (Ac-H3 K9) is evaluated, as this is most easily detected by Western blot in nuclear extracts from mouse renal tissues. Preliminary studies compared the effect of Trichostatin A (an established, but toxic HDACi) at an effective dose in the zebrafish screen ([…]) with an equivalent dose of m4PTB (0.8 mM), and then X2 and X4 dose increments (molar concentration in vivo based on estimate uniform distribution relative to body mass of water). 3.4 mg/kg (4×) m4PTB induced maximal expression of Ac-H3 K9 after 24 hours (FIG. 36). This effect was increased compared with TSA or lower doses of m4PTB, so we elected to use this dose of m4PTB (3.4 mg/kg) for AKI studies in mice. […]
We evaluated efficacy and effective dosage of a second-generation PTBA analogue, m4PTB, by determining the kinetics of renal Histone H3 K9 acetylation (H3K9Ac) following a single SC injection. […]

SMILES	lhx1a expansion class, 800 nM [1]	embryos with expanded lhx1a expression ([1]; 0.5% DMSO at 5 hpf, 3 μM PTBA at 8 hpf)	responders at 0.8 µM ([1]; Danio rerio, 800 nM, read-out: embryos with expanded lhx1a expression (% expansion))	embryos with expanded lhx1a expression ([1]; injected with 200 pg DN-RARα mRNA, then 3 μM PTBA at 5 hpf)	increase in ntla expression (qPCR) [2]	increase in pax8 expression (qPCR) [2]	lhx1a relative transcript (qPCR) [2]	pax2a expression (qPCR) [2]	increase in the number of renal progenitor cells (renal progenitor cells; 3 μM, 10-somite Tg(lhx1a:EGFP)pt303 embryos)	embryos with expansion of cdh17 (pronephros)	expansion of slc4a4 (pronephros)	expansion of slc12a1 (pronephros)	expansion of wt1a (pronephros)	embryos with unchanged fli1a expression ([3]; 3 μM)	embryos with decreased myod1 expression ([3]; 3 μM PTBA (slightly decreased), 25 μM PBA, 200 nM TSA)	embryos with increased ntla expression ([3]; 3 μM PTBA, 25 μM PBA)	effective dose for the renal progenitor assay ([1]; zebrafish, in vivo)	lowest dose at which expansion of the renal progenitor cell population starts to be seen (renal progenitor cells; lhx1a:EGFP transgene, data not shown)	persistence of H3K9Ac induction ([4]; 3.4 mg/kg single SC injection)	dose inducing maximal Ac-H3 K9 expression in kidney ([4]; single SC injection, after 24 hours)
O=C(O)CCCSc1ccccc1 [PTBA, 4-(phenylthio)butanoic acid]	+/−	97%	< 25%	19%	80%	50%	three-fold increase	almost two-fold increase	2.4 fold	89%	92%	64%	74%	97%	95%	88%				
COC(=O)CCCSc1ccccc1 [UPHD-00025, methyl 4-(phenylsulfanyl) butanoate]	+/−																~800 nM	600 nM	24 h	3.4 mg/kg
